Data from doi:10.1101/2021.04.29.441652v1 (biorxiv, 2021).

Target: human σ2 receptor (TMEM97) (Homo sapiens, UniProt Q5BJF2)
Experiment: biochemical
Type: Expi293 membranes
Conditions: read-out: % of control remaining

Sequence of human σ2 receptor (TMEM97) (Q5BJF2 whole entry): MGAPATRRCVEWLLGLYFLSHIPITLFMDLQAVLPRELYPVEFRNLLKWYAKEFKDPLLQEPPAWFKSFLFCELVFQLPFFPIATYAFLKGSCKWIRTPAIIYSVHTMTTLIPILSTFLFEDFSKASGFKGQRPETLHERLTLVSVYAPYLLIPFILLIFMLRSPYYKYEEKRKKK

SMILES | remaining activity at 1 µM
O=C(CN1CC[C@@H]2CCC[C@@H]21)Nc1cccc(I)c1 [ZINC000426526480] | 92%
O[C@@H](CN[C@@H](Cc1ccccc1F)c1ccccc1)CN1CCCC1 [ZINC000429522320] | 60.1%
CCCN1C(=O)N(CC(C)(C)N2CCc3ccccc3C2)C(=O)[C@H]1CC [ZINC000430847713] | 67.3%
O=C(C[C@@H]1CCCN1CCOc1cccc([N+](=O)[O-])c1)c1cccs1 [ZINC000430988927] | 7.5%
CCc1ccc([C@@H]2CCN(Cc3cc(=O)n4c(C)cccc4n3)C2)cc1 [ZINC000433044150] | 5%
CN(C(=O)CN1CCC(c2cnc[nH]2)CC1)C(c1ccccc1)c1ccccc1 [ZINC000435004139] | 99.6%
CC(C)N1C[C@H](NC(=O)N[C@@H](C)c2ccc(Br)s2)[C@@H](C)C1 [ZINC000436303801] | 75.3%
C[C@@H]1CCC[C@@H](NC(=O)CN2CCN(CC[C@@H]3CCOC3)CC2)C1 [ZINC000438095302] | 38.1%
Cc1c(C(=O)NCC2CCCC2)cnc2c1c(=O)n(C)c(=O)n2C [ZINC000438905691] | 105%
C[C@@H]1C[C@@H](c2ccccc2)CCN1Cc1nc(C2CC2)cs1 [ZINC000439311985] | 106%
CO[C@H](C)CS(=O)(=O)N1CCN(C(=O)C(=O)N2CCCC2)CC1 [ZINC000442921898] | 111%
CCO[C@@H]1C[C@](CO)(NC[C@H](O)COC2CCOCC2)C1(C)C [ZINC000444807044] | 120%
O[C@@H](CN[C@@H](c1ccc(Br)cc1Cl)C1CC1)CN1CCCC1 [ZINC000446751851] | 20.8%
CCC(CC)n1ccc(CN2CC=C(c3ccc(O)cc3)CC2)n1 [ZINC000448446275] | 38.7%
C[C@@H]1CCC[C@H](NC(=O)CN2CCN(CCC3=CCCCC3)CC2)C1 [ZINC000450551910] | 16%
CS[C@@H]1CCN(C[C@@H](O)COC(c2ccc(F)cc2)c2ccc(F)cc2)C1 [ZINC000451319844] | 63%
O=C([C@@H]1C[C@H]1C(F)(F)F)N(CCN1CCCCCC1)C1CCC1 [ZINC000452023252] | 37.5%
CC(C)N1CC[C@H](N(C)S(=O)(=O)C[C@H]2CCCCC2(F)F)C1 [ZINC000452100574] | 73.3%
CC(C)N1CC[C@@H](N(C)S(=O)(=O)c2c(F)c(F)cc(F)c2F)C1 [ZINC000452107481] | 36.9%
C[C@H](CCCc1cccnc1)N[C@@H](C)Cn1cccn1 [ZINC000453142034] | 24.9%
C[C@@H](CC(N)=O)NC[C@H](CO)Cc1cc(Br)ccc1F [ZINC000453336584] | 100%
COc1cccnc1CN[C@H](Cc1ccc(C)cc1)C1CC1 [ZINC000453351921] | 69.2%
Cc1ccc(C[C@H](CO)NCc2cccc(F)c2)cc1C [ZINC000453607577] | 86.8%
CN1CC[C@@H](CNC(=O)Nc2cc(F)ccc2Oc2ccccc2)C1 [ZINC000454705882] | 87.6%
CCN(CC)[C@H]1CCN(CC(=O)N[C@@H](c2ccccc2)c2cccs2)C1 [ZINC000464767692] | 73.8%
CCN(CC)[C@H]1CCN(C(=O)NCCCc2cccc(Cl)c2)C1 [ZINC000465804078] | 67.7%

SMILES | remaining activity at 1 µM
C[C@@H]1CN(C2CC2)C[C@H]1NC(=O)N(Cc1cccc(Br)c1)C1CC1 [ZINC000466933503] | 84.3%
CC(C)CO[C@H]1CCN([C@@H](C)C(=O)N(C)Cc2ccc(Br)cc2)C1 [ZINC000468894194] | 35.4%
C[C@@H]1[C@H](Cc2ccccc2)CCN1Cc1cc(=O)n2cc(Cl)ccc2n1 [ZINC000472356611] | 45.9%
COc1ccnc(N2CCN([C@H](C)CCSc3ccccc3)CC2)n1 [ZINC000473272986] | 66.5%
C[C@H](NC[C@H](CO)Cc1c(F)cccc1Cl)c1ccco1 [ZINC000483826940] | 22.5%
CCCCNC(=O)[C@H](C)N1CC[C@](C)(CNC(=O)OC(C)(C)C)C1 [ZINC000495656270] | 45.1%
CN(C[C@H](O)CN[C@@H]1C[C@H]2CCCCN2C1=O)C(=O)OC(C)(C)C [ZINC000496403719] | 92.4%
C[C@]1(c2ccccc2)CCCN(CC(=O)N2CCc3ccccc32)C1 [ZINC000500192494] | 69.3%
C[C@@H]1CCN(CC(=O)N(C)[C@@H](C)c2ccc(F)c(F)c2)C[C@@H]1C [ZINC000501775665] | 20.4%
COCCN1CCC(N[C@H]2COc3cc(F)c(Br)cc32)CC1 [ZINC000504552433] | 49.2%
CC[C@H]1CN(Cc2ccc(-c3ccccc3)cc2F)C[C@H]1O [ZINC000507809396] | 14%
Brc1ccccc1CNc1nccn1Cc1ccccc1 [ZINC000508455082] | 69.3%
Cc1cccc(CNc2nccn2Cc2ccccc2)c1C [ZINC000508475661] | 38.6%
C[C@H]1C[C@H](N2CCCC2)CN1CC(=O)N(Cc1ccccc1)c1ccccc1 [ZINC000512182007] | 31.6%
Cc1ccccc1[C@@H]1CCN([C@H](C)C(=O)NCCc2ccccc2)C1 [ZINC000513818302] | 89.1%
Cc1cccc(NC(=O)N(C)C[C@H]2CCCN2C)c1C(=O)N1CCCC1 [ZINC000516964180] | 99.3%
NC(=O)[C@H](Cc1ccc(Cl)cc1)NCc1cc2ccccc2s1 [ZINC000517634594] | 98.7%
Cc1ccccc1[C@H](OC[C@H](O)CN1Cc2ccccc2C1)c1ccccc1 [ZINC000518003593] | 79.8%
Cc1ccnc2nc(C(=O)N3CCN(CCN4CCCC4)CC3)nn12 [ZINC000518759550] | 115%
COc1cc(Cl)c(C)cc1NC(=O)[C@H](C)N(C)Cc1sccc1C [ZINC000520440291] | 102%
O=C(Nc1cnc2ccccc2c1)[C@]1(O)CCN(Cc2ccccc2)C1 [ZINC000524392254] | 93.9%
CC[C@@H]1CCC[C@H](NC(=O)[C@H](C)N2CCCCCC2)C1 [ZINC000525245955] | 93.6%
Cc1cccc(C[C@H](CO)NCc2cnc(C3CCCCC3)s2)c1 [ZINC000526962900] | 60.7%
C[C@@H](N[C@H]1Cc2ccccc2NC1=O)[C@@H]1C[C@H]1c1ccc(Cl)s1 [ZINC000528002641] | 84%
O=C(NC[C@@H]1CNCCO1)N1CCN(S(=O)(=O)C2CC2)CC1 [ZINC000529344158] | 135%
C[C@@H](C(=O)Nc1cccc(C2CCCCC2)c1)N1CCN(C)CC1 [ZINC000529649527] | 84.3%

SMILES | remaining activity at 1 µM
CC1(C)[C@H](NC(=O)[C@]2(O)CCN(Cc3ccccc3)C2)[C@@H]2CCCO[C@@H]21 [ZINC000531059007] | 87.5%
CC(=O)N1CCN(C(=O)C(=O)Nc2cnn(-c3ccccn3)c2)CC1 [ZINC000531495018] | 99.3%
COC(=O)c1ccccc1NC(=O)CN1C[C@@H](c2ccccc2)C[C@@H]1C [ZINC000532978237] | 119%
C[C@H](C(=O)Nc1ccc(F)cc1Cl)N1CC[C@H](N2CCCC2)C1 [ZINC000533411740] | 79.7%
Cc1cc(NC(=O)[C@H](C)N2CCC[C@@H]([C@H](C)O)C2)ccc1Br [ZINC000534109220] | 70.4%
CCc1cc(N2CCC[C@@H](N[C@H](C)c3ccc(OC)c(Cl)c3)C2)ncn1 [ZINC000536865847] | 36.3%
CCCC1CCC(CN2CCN(CC(=O)N(CC)CC)CC2)CC1 (stereo not drawn) [ZINC000539406733] | 34%
C[C@@H](C(=O)NCc1ccccc1Cl)N1CC[C@H](n2ncc3ccccc32)C1 [ZINC000542825037] | 107%
COc1cccc2ncnc(N3CCN(CC4CCOCC4)CC3)c12 [ZINC000543048256] | 109%
FC(F)(F)c1cccc([C@@]2(F)CCN(C[C@@H]3CCSC3)C2)c1 [ZINC000549824186] | 20%
Cc1nc(CN2CC[C@H](CC3CC3)C2)nc2ccccc12 [ZINC000550423124] | 43.5%
Cn1nccc1[C@@H]1CCC[C@@H](N[C@H]2CC3CCC2CC3)C1 [ZINC000550829396] | 19.6%
CN1CCN(CCCCNC(=O)C(=O)N2CCSCC2)CC1 [ZINC000555574173] | 107%
CC(C)OCCN1CCC(NC(=O)[C@@H]2CCc3nncn3C2)CC1 [ZINC000556484619] | 112%
CN1CC[C@](O)(CN[C@@H](c2sccc2Br)C2CCCCC2)C1 [ZINC000556573026] | 16.7%
CN1CCN(C(=O)C(=O)N2CCCN(C3CCCC3)CC2)CC1=O [ZINC000556797005] | 79.9%
COCCN1CCC[C@@H]1CNC(=O)C(=O)N1CCC[C@@H](C(C)C)CC1 [ZINC000557493019] | 113%
CC1CCC(CNC(=O)C(=O)NC2CCN([C@@H]3CCC[C@@H]3O)CC2)CC1 (stereo partly drawn) [ZINC000564110976] | 78.2%
Cc1csc2nc(CN[C@H]3C[C@H](OCc4ccccc4)C3(C)C)cc(=O)n12 [ZINC000567338231] | 34.7%
C[C@H](C(=O)NCc1ccc(Cl)cc1)N1CC[C@@H](c2cccnc2)C1 [ZINC000571080072] | 64%
CCc1ccc([C@@H](C)N[C@@H]2CCCN(C(=O)CCC(F)(F)F)C2)s1 [ZINC000574285278] | 76.2%
C[C@@H]1C[C@H](NC(=O)C(=O)N(C)Cc2c(Cl)cccc2Cl)CN1C1CC1 [ZINC000574318236] | 100%
CCc1nc2cc(CN[C@@H](C)CC(=O)N3CCCCCC3)ccc2n1C1CC1 [ZINC000574654702] | 48.4%
Cc1ccc2c(c1)[C@H](NC(=O)NC[C@@H]1CCN(C(C)C)C1)CCC2 [ZINC000575186982] | 22.9%
C[C@H](NC1CC1)C(=O)NCc1ccc(C(=O)N=c2cc[nH]cc2)cc1 [ZINC000576277949] | 67.2%
C[C@H](Cc1ccccc1Br)NCC1(O)CCC1 [ZINC000577603040] | 61.7%
